According to patent publication US7767822B2, “Water-soluble tetrazolium salts” (Bayer Healthcare LLC, priority 2005, dated 2010):
Like-named read-outs stand apart in the source and are kept apart here.

Key:
[1] = Solubility of tetrazolium salts in 0.2M phosphate buffer; type: physicochemical
[2] = Absorption spectra of formazans formed from the tetrazolium salts; type: physicochemical; conditions: 100 μM tetrazolium salt in 100 mM potassium phosphate buffer, 5-fold excess ascorbate; compared with HTC-045
Experimental: The compounds prepared and tested for their solubility had somewhat different spectral properties. The absorption spectra of each formazan formed from the tetrazolium salt and tested for solubility in Table 1 was measured with a Hewlett Packard Model 8453 diode-array UV-visible spectrophotometer. Solutions of 100 μM of a tetrazolium salt were prepared in 100 mM potassium phosphate buffer. The formazan spectra were measured after the addition of 5-fold excess ascorbate acid salt to convert the tet salts to their formazans.

[3] = 0.2M phosphate buffer, pH ~7.5, room temperature

Row | Compound | Solubilility [1] [mM] | shape of formazan absorbance versus wavelength curve [2] | Solubilility [1, 3] [mM]
1 | CCOc1ccc2nc(-n3nc(-c4ccc(OCCC[N+](C)(C)C)c(OC)c4)n[n+]3-c3ccccc3OCCC[N+](C)(C)C)sc2c1.O=N[O-].[Br-].[Br-] [Example 7] | 169 | relatively flat | 
2 | 5-Benzo[1,3 dioxol-5-yl]-3-[2-(3-trimethylammonium) propoxy-phenyl]-2-(6-methoxynapthylthiazol-2-yl)-2 H-tetrazolium bromo nitrite salt [Example 5] |  | rising absorbance verses wavelength curve | 
3 | Br.CN(C)CCCOc1ccccc1-[n+]1nc(-c2ccc3c(c2)OCO3)nn1-c1nc(C(F)F)c(Cl)s1.O=N[O-] [Example 3, 5-Benzo[1,3 dioxol-5-yl]-3-[2-(3-dimethylhydrogenammoniun)propoxy-phenyl]-2-(5-chloro-4-difluoromethyl-thiazol-2-yl)-2 H-tetrazolium bromo nitrite salt] | 9 | relatively flat | 
4 | 5-[4-(3-trimethylammonium) propoxy-3-methoxy-phenyl]-3-[2-(3-trimethylammonium) propoxy-phenyl]-2-(6-ethoxy-benzothiazol-2-yl)-2H-tetrazolium tribromide salt [Example 9] |  |  | 260
5 | 5-Benzo[1,3 dioxol-5-yl]-3-[2-(3-trimethylammonium) propoxy-phenyl]-2(benzothiazol-2-yl)-2 H-tetrazolium bromo nitrite salt [Example 4] |  | relatively flat | 
6 | COc1cc(-c2nn(-c3nc(C(F)F)c(Cl)s3)[n+](-c3ccccc3OCCC[N+](C)(C)C)n2)ccc1OCCC[N+](C)(C)C.O=N[O-].[Br-].[Br-] [Example 6, 5-[4-(3-trimethylammonium)propoxy-3-methoxy-phenyl]-3-[2-(3-trimethylammonium)propoxy-phenyl]-2-(5-chloro-4-difluoromethyl-thiazol-2-yl)-2H-tetrazolium dibromo nitrite salt] |  | relatively flat | 181
7 | 5-[4-(3-trimethylammonium)propoxy-3-methoxy-phenyl]-3-[2-(3-trimethylammonium) propoxy-phenyl]-2-(6-bromo-benzothiazol-2-yl)-2H-tetrazolium dibromo nitrite salt [Example 8] |  | relatively flat | 
8 | 5-Benzo[1,3 dioxol-5-yl]-3-[2-(3-trimethylammonium) propoxy-phenyl]-2-(5-chloro-4-difluoromethyl-thiazol-2-yl)-2H-tetrazolium bromo nitrite salt [Example 1] |  | relatively flat | 
9 | 5-Benzo[1,3 dioxol-5-yl]-3-[2-(3-trimethylammonium) propoxy-phenyl]-2-(5-chloro-4-difluoromethyl-thiazol-2-yl)-2 H-tetrazolium bromo tetrafluoroborate salt [Example 2] | 5 | relatively flat | 
